According to ChEMBL document CHEMBL1144359, “Synthesis and antitumor activity of the hexacyclic camptothecin derivatives” (Bioorg Med Chem Lett, 2005):

Experiments:
[1] = tested on: Mus musculus; experiment: Percent body weight change in mouse with tumor sarcoma-180 after intraperitoneal (i.p.) injection at a dose of 75 mg/Kg; assay type: functional
[2] = Lethal toxicity in mouse with tumor sarcoma-180 after intraperitoneal (i.p.) injection at a dose of 75 mg/Kg of total 10 tested; settings: in vivo, ip
[3] = tested on: Mus musculus; experiment: Average tumor weight in mouse with tumor sarcoma-180 after intraperitoneal (i.p.) injection at a dose of 75 mg/Kg; assay type: functional
[4] = tested on: Mus musculus; experiment: Percent tumor-weight inhibition in mouse with tumor sarcoma-180 after intraperitoneal (i.p.) injection at a dose of 75 mg/Kg; assay type: functional
[5] = In-vitro inhibitory concentration for human tumor HELA cell-line was determined using MTT assay after 3 days of incubation; assay type: functional, cell-based; settings: 72 h
[6] = In-vitro inhibitory concentration for human tumor HCT116 cell-line was determined using MTT assay after 3 days of incubation; assay type: functional, cell-based; settings: HCT-116, 72 h
[7] = tested on: Bel-7402; experiment: In-vitro inhibitory concentration for human tumor BEL-7402 cell-line was determined using MTT assay after 3 days of incubation; assay type: functional, cell-based; settings: Bel-7402, 72 h
[8] = tested on: HL-60; experiment: In-vitro inhibitory concentration for human tumor HL60 cell-line was determined using […] assay after 3 days of incubation; assay type: functional, cell-based; settings: HL-60, 72 h
[9] = tested on: Mus musculus; experiment: Average tumor weight in mouse with tumor sarcoma-180 after intraperitoneal (i.p.) injection at a dose of 1 mg/Kg; assay type: functional
[10] = tested on: Mus musculus; experiment: Average tumor weight in mouse with tumor sarcoma-180 after intraperitoneal (i.p.) injection at a dose of 0.5 mg/Kg; assay type: functional
[11] = tested on: Mus musculus; experiment: Percent tumor-weight inhibition in mouse with tumor sarcoma-180 after intraperitoneal (i.p.) injection at a dose of 1 mg/Kg; assay type: functional
[12] = tested on: Mus musculus; experiment: Percent body weight change in mouse with tumor sarcoma-180 after intraperitoneal (i.p.) injection at a dose of 0.5 mg/Kg; assay type: functional
[13] = tested on: Mus musculus; experiment: Percent body weight change in mouse with tumor sarcoma-180 after intraperitoneal (i.p.) injection at a dose of 1 mg/Kg; assay type: functional
[14] = tested on: Mus musculus; experiment: Percent tumor-weight inhibition in mouse with tumor sarcoma-180 after intraperitoneal (i.p.) injection at a dose of 0.5 mg/Kg; assay type: functional
[15] = Lethal toxicity in mouse with tumor sarcoma-180 after intraperitoneal (i.p.) injection at a dose of 0.5 mg/Kg of total 8 tested; settings: in vivo, ip
[16] = Lethal toxicity in mouse with tumor sarcoma-180 after intraperitoneal (i.p.) injection at a dose of 1.0 mg/Kg of total 8 tested; settings: in vivo, ip
[17] = tested on: Mus musculus; experiment: Average tumor weight in mouse with tumor sarcoma-180 after intraperitoneal (i.p.) injection at a dose of 40 mg/Kg; assay type: functional
[18] = tested on: Mus musculus; experiment: Percent body weight change in mouse with tumor sarcoma-180 after intraperitoneal (i.p.) injection at a dose of 40 mg/Kg; assay type: functional
[19] = Lethal toxicity in mouse with tumor sarcoma-180 after intraperitoneal (i.p.) injection at a dose of 40 mg/Kg of total 8 tested; settings: in vivo, ip
[20] = tested on: Mus musculus; experiment: Percent tumor-weight inhibition in mouse with tumor sarcoma-180 after intraperitoneal (i.p.) injection at a dose of 40 mg/Kg; assay type: functional
[21] = Lethal toxicity in mouse with tumor sarcoma-180 after intraperitoneal (i.p.) injection at a dose of 2.5 mg/Kg of total 8 tested; settings: in vivo, ip
[22] = tested on: Mus musculus; experiment: Percent tumor-weight inhibition in mouse with tumor sarcoma-180 after intraperitoneal (i.p.) injection at a dose of 2.5 mg/Kg; assay type: functional
[23] = tested on: Mus musculus; experiment: Percent body weight change in mouse with tumor sarcoma-180 after intraperitoneal (i.p.) injection at a dose of 5 mg/Kg; assay type: functional
[24] = tested on: Mus musculus; experiment: Percent tumor-weight inhibition in mouse with tumor sarcoma-180 after intraperitoneal (i.p.) injection at a dose of 5 mg/Kg; assay type: functional
[25] = tested on: Mus musculus; experiment: Percent body weight change in mouse with tumor sarcoma-180 after intraperitoneal (i.p.) injection at a dose of 2.5 mg/Kg; assay type: functional
[26] = tested on: Mus musculus; experiment: Average tumor weight in mouse with tumor sarcoma-180 after intraperitoneal (i.p.) injection at a dose of 5 mg/Kg; assay type: functional
[27] = tested on: Mus musculus; experiment: Average tumor weight in mouse with tumor sarcoma-180 after intraperitoneal (i.p.) injection at a dose of 2.5 mg/Kg; assay type: functional
[28] = Lethal toxicity in mouse with tumor sarcoma-180 after intraperitoneal (i.p.) injection at a dose of 5.0 mg/Kg of total 8 tested; settings: in vivo, ip

SMILES | IC50 [5] [nM] | IC50 [6] [nM] | IC50 [7] [nM] | IC50 [8] [nM] | further results
O=c1[nH]cc(F)c(=O)[nH]1 [FLUOROURACIL] | – | – | – | – | BWC [1]: 31%; No. of mice dead [2]: 0; TW [3]: 0.22; TWI [4]: 86%
CCc1c2c(nc3ccc4occc4c13)-c1cc3c(c(=O)n1C2)COC(=O)[C@]3(O)CC | 2.3 | 1.7 | 2.6 | 0.28 | –
CCc1c2c(nc3ccc4c(c13)CC(C)O4)-c1cc3c(c(=O)n1C2)COC(=O)[C@]3(O)CC (some centres not stated) | 19 | 2.6 | 7.5 | 4.9 | –
CCc1c2c(nc3ccc4c(c13)CC(COC(C)=O)O4)-c1cc3c(c(=O)n1C2)COC(=O)[C@]3(O)CC (some centres not stated) | 14 | 0.52 | 11 | 9.1 | –
CCc1c2c(nc3ccc(O)cc13)-c1cc3c(c(=O)n1C2)COC(=O)[C@]3(O)CC [7-ETHYL-10-HYDROXYCAMPTOTHECIN] | 22 | 3.3 | 13 | 19 | –
CCc1c2c(nc3ccc4c(c13)CC(CO)O4)-c1cc3c(c(=O)n1C2)COC(=O)[C@]3(O)CC (some centres not stated) | 23 | 3.8 | 7.8 | 7.1 | –
CC[C@@]1(O)C(=O)OCc2c1cc1n(c2=O)Cc2cc3c4c(ccc3nc2-1)OC(CO)C4 (some centres not stated) | 25 | 2.6 | 19 | 8.7 | –
CC[C@@]1(O)C(=O)OCc2c1cc1n(c2=O)Cc2cc3c(ccc4occc43)nc2-1 | 15 | 1.6 | 1.6 | 3 | TW [9]: 0.03; TW [10]: 0.23; TWI [11]: 98%; BWC [12]: 26%; BWC [13]: -34%; TWI [14]: 85%; No. of mice dead [15]: 0; No. of mice dead [16]: 0
CCc1c2c(nc3ccc4c(c13)CC(O)O4)-c1cc3c(c(=O)n1C2)COC(=O)[C@]3(O)CC (some centres not stated) | 20 | 1.4 | 4.4 | 4.2 | –
CC[C@@]1(O)C(=O)OCc2c1cc1n(c2=O)Cc2cc3c4c(ccc3nc2-1)OC(COC(C)=O)C4 (some centres not stated) | 11 | 4.3 | 15 | 11 | –
CCc1c2c(nc3ccc(OC(=O)N4CCC(N5CCCCC5)CC4)cc13)-c1cc3c(c(=O)n1C2)COC(=O)[C@]3(O)CC [IRINOTECAN] | – | – | – | – | TW [17]: 0.01; BWC [18]: -28%; No. of mice dead [19]: 0; TWI [20]: 99.4%
CC[C@@]1(O)C(=O)OCc2c1cc1n(c2=O)Cc2cc3c4c(ccc3nc2-1)OC(O)C4 (some centres not stated) | – | 3.2 | 2.6 | 8.4 | No. of mice dead [21]: 0; TWI [22]: 70%; BWC [23]: -31%; TWI [24]: 97%; BWC [25]: 5%; TW [26]: 0.05; TW [27]: 0.45; No. of mice dead [28]: 0
CC[C@@]1(O)C(=O)OCc2c1cc1n(c2=O)Cc2cc3c4c(ccc3nc2-1)OC(C)C4 (some centres not stated) | 10 | 4.9 | 7.4 | 3.1 | –
